Source: US20100298141A1, “SUBSTITUTED PYRIDINE N-OXIDE HERBICIDES” (E. I. DU PONT DE NEMOURS AND COMPANY, priority 2007, published 2010)

Key:
crabgrass = assay: Test A pre-/postemergence greenhouse test; format: in vivo, Digitaria sanguinalis; conditions: for Crabgrass, Large plant response rating: 0 to 100 scale
Outline: (§1)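 Pots of loam–sand soil sown with the test species are sprayed preemergence on the soil surface; emerged seedlings (1–2 leaves, 2–10 cm) are sprayed postemergence at the same time. The vehicle is a non-phytotoxic solvent mixture with surfactant. Injury is scored visually after ~10 d in greenhouse.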

yellow nutsedge = assay: Test C pre-/postemergence test; format: in vivo, Cyperus esculentus
Outline: (§2)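 Compounds in a non-phytotoxic solvent with surfactant applied preemergence to seeded pots and, at the same time, postemergence to plants 2–18 cm tall (1- to 4-leaf stage). Paddy tests: pots flooded to 3 cm, compound applied into the water, depth held throughout.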

wheat = assay: Test A pre-/postemergence greenhouse test; format: in vivo, Triticum aestivum; conditions: for Wheat plant response rating: 0 to 100 scale
Outline: as §1

morningglory [1] = assay: Test A pre-/postemergence greenhouse test; format: in vivo, Ipomoea spp.; conditions: for Morningglory plant response rating: 0 to 100 scale
Outline: as §1

Goosegrass = assay: Test C pre-/postemergence test; format: in vivo, Eleusin indica
Outline: as §2

soybean = assay: Test C pre-/postemergence test; format: in vivo, Glycine max
Outline: as §2

cocklebur = assay: Test C pre-/postemergence test; format: in vivo, Xanthium strumarium
Outline: as §2

giant foxtail [2] = assay: Test C pre-/postemergence test; format: in vivo, Setaria faberii
Outline: as §2

lambsquarters = assay: Test C pre-/postemergence test; format: in vivo, Chenopodium album
Outline: as §2

morningglory [3] = assay: Test C pre-/postemergence test; format: in vivo, Ipomoea coccinea
Outline: as §2

woolly cupgrass = assay: Test C pre-/postemergence test; format: in vivo, Eriochloa villosa
Outline: as §2

corn = assay: Test C pre-/postemergence test; format: in vivo, Zea mays
Outline: as §2

downy brome = assay: Test C pre-/postemergence test; format: in vivo, Bromus tectorum
Outline: as §2

johnsongrass = assay: Test C pre-/postemergence test; format: in vivo, Sorghum halepense
Outline: as §2

giant foxtail [4] = assay: Test A pre-/postemergence greenhouse test; format: in vivo, Setaria faberi; conditions: for Foxtail, Giant plant response rating: 0 to 100 scale
Outline: as §1

umbrella sedge = assay: Test C flooded paddy test; format: in vivo, Cyperus difformis; conditions: Flood
Outline: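 Ratings were visual and made relative to untreated controls after 13 to 15 greenhouse days.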

common ragweed = assay: Test C pre-/postemergence test; format: in vivo, Ambrosia elation
Outline: as §2

[5] = Postemergence, 125 g ai/ha, 0 to 100 scale where 0 is no effect and 100 is complete control
[6] = Postemergence, 500 g ai/ha, 0 is no effect, 100 is complete control
[7] = Preemergence, 125 g ai/ha, 0 no effect, 100 complete control
[8] = Preemergence, 500 g ai/ha, 0 no effect, 100 complete control
[9] = 62 g ai/ha, Preemergence, scale 0 to 100
[10] = 125 g ai/ha, preemergence, scale 0 (no effect) to 100 (complete control)
[11] = Preemergence, 31 g ai/ha, scale 0 to 100 (0 no effect, 100 complete control)
[12] = preemergence, 250 g ai/ha, scale 0 (no effect) to 100 (complete control)

Cc1cc[n+]([O-])c(S(=O)(=O)Cc2c(C(F)(F)C(F)(F)F)nn(C)c2OCC(F)(F)F)c1 [Compound 99]
Plant response rating, Crabgrass, Large (crabgrass; [5]): 60
Crabgrass, Large plant response rating (crabgrass; [6]): 80
Crabgrass, Large plant response rating (crabgrass; [7]): 80
Crabgrass, Large plant response rating (crabgrass; [8]): 100
Nutsedge, Yellow plant response rating (yellow nutsedge; [9]): 60
Nutsedge, Yellow plant response rating (yellow nutsedge; [10]): 60
Plant response rating, Nutsedge, Yellow (yellow nutsedge; [11]): 0
Nutsedge, Yellow plant response rating (yellow nutsedge; [12]): 80
Plant response rating, Wheat (wheat; [5]): 50
Wheat plant response rating (wheat; [6]): 70
Wheat plant response rating (wheat; [7]): 50
Wheat plant response rating (wheat; [8]): 90
Plant response rating, Morningglory (morningglory [1]; [5]): 40
Morningglory plant response rating (morningglory [1]; [6]): 50
Morningglory plant response rating (morningglory [1]; [7]): 50
Morningglory plant response rating (morningglory [1]; [8]): 100
Goosegrass plant response rating (Goosegrass; [9]): 95
Goosegrass plant response rating (Goosegrass; [10]): 100
Plant response rating, Goosegrass (Goosegrass; [11]): 85
Goosegrass plant response rating (Goosegrass; [12]): 100
Soybean plant response rating (soybean; [9]): 25
Soybean plant response rating (soybean; [10]): 30
Plant response rating, Soybean (soybean; [11]): 0
Soybean plant response rating (soybean; [12]): 98
Cocklebur plant response rating (cocklebur; [9]): 0
Cocklebur plant response rating (cocklebur; [10]): 0
Plant response rating, Cocklebur (cocklebur; [11]): 0
Cocklebur plant response rating (cocklebur; [12]): 30
Foxtail, Giant plant response rating (giant foxtail [2]; [9]): 85
Foxtail, Giant plant response rating (giant foxtail [2]; [10]): 100
Foxtail, Giant plant response rating (giant foxtail [2]; [12]): 100
Lambsquarters plant response rating (lambsquarters; [9]): 100
Lambsquarters plant response rating (lambsquarters; [10]): 100
Plant response rating, Lambsquarters (lambsquarters; [11]): 100
Lambsquarters plant response rating (lambsquarters; [12]): 100
Morningglory plant response rating (morningglory [3]; [9]): 100
Morningglory plant response rating (morningglory [3]; [10]): 100
Plant response rating, Morningglory (morningglory [3]; [11]): 65
Morningglory plant response rating (morningglory [3]; [12]): 100
Cupgrass, Woolly plant response rating (woolly cupgrass; [9]): 0
Cupgrass, Woolly plant response rating (woolly cupgrass; [10]): 70
Plant response rating, Cupgrass, Woolly (woolly cupgrass; [11]): 0
Cupgrass, Woolly plant response rating (woolly cupgrass; [12]): 85
Corn plant response rating (corn; [9]): 0
Corn plant response rating (corn; [10]): 30
Plant response rating, Corn (corn; [11]): 0
Corn plant response rating (corn; [12]): 50
Bromegrass, Downy plant response rating (downy brome; [9]): 50
Bromegrass, Downy plant response rating (downy brome; [10]): 60
Plant response rating, Bromegrass, Downy (downy brome; [11]): 30
Bromegrass, Downy plant response rating (downy brome; [12]): 70
Johnsongrass plant response rating (johnsongrass; [9]): 90
Johnsongrass plant response rating (johnsongrass; [10]): 100
Plant response rating, Johnsongrass (johnsongrass; [11]): 40
Johnsongrass plant response rating (johnsongrass; [12]): 100
Plant response rating, Foxtail, Giant (giant foxtail [4]; [5]): 70
Foxtail, Giant plant response rating (giant foxtail [4]; [6]): 80
Foxtail, Giant plant response rating (giant foxtail [4]; [7]): 90
Foxtail, Giant plant response rating (giant foxtail [4]; [8]): 100
Plant response rating, Sedge, Umbrella (umbrella sedge; 62 g ai/ha, scale 0 to 100 (0 no effect, 100 complete control)): 0
Plant response rating, Sedge, Umbrella (umbrella sedge; 250 g ai/ha, scale 0 to 100, 0 no effect, 100 complete control, 13 to 15 days): 65
Ragweed plant response rating (common ragweed; [9]): 100
Ragweed plant response rating (common ragweed; [10]): 100
Ragweed plant response rating (common ragweed; [12]): 100
